# In PMC9061857, “A fluorogenic probe for granzyme B enables in-biopsy evaluation and screening of response to anticancer immunotherapies” (Nature Communications, 2022):
# Primed or numbered codes have the meaning given here. Where no end group is shown, it is not given here. The star is where a group is joined. BODIPY(FL) = CC1=CC(C)=[N+]2C1=Cc1ccc(CCC(=O)*)n1[B-]2(F)F; Dabcyl′ = quencher
# Experiments:
# [1] = system: co-cultures of E0771 cells and IL-2-activated CD8+ T cells; assay: Image-based phenotypic drug screen (H5 fluorescence); settings: for fluorescence signals compared to IL-2 only controls: combination with IL-2
# Description: E0771 and CD8+ T cells were co-cultured for 2 days and then incubated with IL-2 (100 U mL^−1) and each individual drug at their respective working concentrations for 3 h (Table S5).
# Wells received 100 U mL^−1 IL-2 (low IL-2) for T cell viability. […] Data as means ± SEM (n = 8). […] Data as means ± SD (n = 5). P-value from two-tailed t-tests.
# E0771 (750 cells/well) and freshly isolated murine CD8+ T cells (6000 cells/well) were plated in 384-well plates as described above. After 2 days of co-culture at 37 °C, cells were further incubated with IL-2 alone (100 or 250 U mL^−1) or IL-2 (100 U mL^−1) in combination with drugs (Table S5) for 3 h. […] Briefly, nuclei were used as seeds to create a pseudo-cell area and GzmB-positive puncta were detected using a top-hat filter (pixel size: 10, circle shape) followed by an average filter (3 × 3 pixels).
# [2] = system: E0771 cells alone or in co-culture with CD8+ T cells; assay: Hit validation of AZD5363 by flow cytometry; type: cell-based, mouse
# Description: (from 3 independent experiments) in E0771 cells alone (50,000 cells well-1) or in co-culture with CD8+ T cells (200,000 cells well-1) and treatment of AZD5363 (1 μM). concentration: 1,000 U mL-1. Excitation/emission wavelengths: 488 nm/525 nm. b) Representative flow cytometry contour plots (from 3 independent experiments; gating […]
# (1 picture or pasted object on this page, not shown here) […]
# strategy shown in Supplementary Figure 7) of E0771 cells (50,000 cells well-1) after co- […]
# 633/670 nm (for AF647-Annexin V). c) Percentages of E0771 cells that were double - […]
# in a). Data presented as mean values±SEM (n=3). […]
# obtained from ONE-ANOVA tests with multiple c omparisons. Source data in c provided
# [3] = target: T1, human GzmB (hGzmB) (Homo sapiens, UniProt P10144); assay: Fluorescence assay with recombinant hGzmB (fluorogenic response, time course); type: biochemical
# T1 construct: For active GzmB vs pro-GzmB, p < 0.0001
# T1 sequence (P10144 21-247): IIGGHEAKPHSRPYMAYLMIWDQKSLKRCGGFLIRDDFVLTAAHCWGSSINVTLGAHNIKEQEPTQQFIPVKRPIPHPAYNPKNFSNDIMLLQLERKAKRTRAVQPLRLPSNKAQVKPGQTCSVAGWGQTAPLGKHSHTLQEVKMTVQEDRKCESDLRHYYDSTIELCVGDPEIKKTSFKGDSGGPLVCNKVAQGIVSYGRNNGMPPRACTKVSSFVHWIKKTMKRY
# Description: Fluorescence-based assays with different enzymes were performed in the appropriate buffers. Probes (25 μM) were added to enzymes (20 nM or at the indicated concentrations) in 384-well plates and their fluorescence emission was recorded at 450 nm (for AMC) or 510 nm (for BODIPY) at 37 °C using a Synergy H1 Hybrid spectrophotometer. In experiments with Ac-IEPD-CHO (50 μM), the inhibitor was preincubated for 1 h with GzmB before the addition of any probe.
# [4] = target: T2, recombinant human GzmB (Homo sapiens, UniProt P10144); assay: Kinetic measurements (Michaelis-Menten) with recombinant hGzmB; type: biochemical; settings: Supplementary Table 4, recombinant human GzmB
# T2 construct: For active GzmB vs pro-GzmB, p < 0.0001
# T2 sequence (P10144 21-247): as above
# Description: Fluorescence-based assays with different enzymes were performed in the appropriate buffers. […] In experiments with Ac-IEPD-CHO (50 μM), the inhibitor was preincubated for 1 h with GzmB before the addition of any probe.
# Supplementary Table 4. Kinetic values determined for hexapeptides H2-H5 against
# Probe Sequence kcat kcat / KM
# [5] = target: T1, human GzmB (hGzmB); assay: HPLC conversion of fluorogenic peptides by hGzmB; type: biochemical; settings: probe 25 μM (Ac-IEPD-AMC 50 μM), TRIS buffer, 37 °C, HPLC-UV
# Description: Supplementary Figure 1. Reactivity of fluorogenic substrates against human GzmB and limits of detection. a) Reaction conversion rates (by HPLC-UV detection at 350 nm) for Ac-IEPD-AMC (50 μM) in TRIS buffer (see Methods) at 37 °C containing different concentrations of hGzmB. Data presented as mean values±SEM (n=3 independent biological experiments). b) Reaction conversion rates (by HPLC-UV detection at 500 nm) for the tetrapeptide T1 (25 μM) in TRIS buffer at 37 °C containing different concentrations of hGzmB. Data presented as mean values±SEM (3 independent biological experiments).
# Source data provided as a Source Data file.
# (1 picture or pasted object on this page, not shown here)
# Supplementary Table 1. Chemical structures and reactivity of FRET-based tetrapeptides against human GzmB.
# Code Structure Linker Quencher HPLC conversion HPLC conversion […]
# Supplementary Table 2. Sequences and reactivity of FRET-based hexapeptides against […]
# Code Peptide sequence HPLC conversion
# H1 Ile-Glu-Pro-Asp-Ala-Gly 75%
# H2 Ile-Glu-Pro-Asp-Ser-Gly 80%
# H3 Ile-Glu-Pro-Asp-Ser-Leu 80%
# H4 Ile-Glu-Pro-Asp-Trp-Leu 82%
# H6 Ile-Glu-Pro-Asp-Trp-Arg 40%
# H7 Ile-Glu-Pro-Asp-Arg-Leu 60%
# H5m Ile-Glu-Phe-Asp-Ala-Leu 70%
# [6] = system: recombinant mouse GzmB; assay: Reactivity against recombinant mouse GzmB (fluorescence); type: biochemical; settings: probe 25 μM, 90 min, 37 °C, mouse pro-GzmB 100 nM pre-activated with cathepsin C
# Description: and H5m (both at 25 μM) after incubation for 90 min at 37 °C with recombinant mouse
# pro-GzmB (100 nM) after pre-activation with mouse cathepsin C (5.5 μg mL-1) for 4 h.
# Excitation/emission wavelengths: 450 nm /510 nm. Data presented as mean values±SEM
# (3 independent experiments with 3 technical replicates). Source data provided as a […]
# [7] = system: E0771 cells; assay: Flow cytometry of E0771 cells in co-culture with CD8+ T cells; type: cell-based, mouse; settings: E0771 alone, staurosporine 1 μM, 1 h
# Description: Treatments with staurosporine (1 μM) were for 1 h. […]
# mouse CD8+ T cells and mKate-E0771 cells. b) Representative flow cytometry contour plots of E0771 cells in: left) co-cultures of E0771 cells (50,000 cells well-1) and activated […]
# cells well-1), right) E0771 alone cells treated with staurosporine (1 µM, 1 h). c) Representative flow cytometry contour plots of CD8+ T cells in: left) co-cultures of E0771 […]
# 2 h) murine CD8+ T cells (200,000 cells well -1). All cultures in b) and c) were equally […]
# with and without preincubation of the GzmB inhibitor Ac -IEPD-CHO. Data presented as […]
# 633/670 nm (for AF647-Annexin V). Representative plots from independent experiments performed in triplicate. Source data in d provided as a Source Data file.
# [8] = target: human granzyme B (human) (UniProt P10144)
# Sequence of human granzyme B (human) (P10144 21-247): as above
# [9] = probe 25 μM, hGzmB 20 nM, Data 1
# [10] = probe 25 μM, hGzmB 20 nM, Data 2
# [11] = probe 25 μM, hGzmB 20 nM, Data 3
molecule,measurement,setting,value
"CC(=O)N[C@@H](CSC(=O)[C@]1([C@@H](O)C(C)C)NC(=O)[C@H](C)[C@@H]1O)C(=O)O [C30, Lactacystin]",fluorescence signals compared to IL-2 only controls,[1],Increased
"Cn1nnc2c(C(N)=O)ncn2c1=O [C20, Temozolomide]",fluorescence signals compared to IL-2 only controls,[1],Increased
AZD5363 [C5],E0771 cells double-stained with probe H5 and AF647-Annexin V,"[2]; AZ only (AZD5363 1 μM), Data1",2%
same,E0771 cells double-stained with probe H5 and AF647-Annexin V,"[2]; AZ only (AZD5363 1 μM), Data2",2%
same,E0771 cells double-stained with probe H5 and AF647-Annexin V,"[2]; AZ only (AZD5363 1 μM), Data3",3%
same,"cancer cell death and H5 labeling, drug on its own","[2]; AZD5363 1 μM alone, E0771 cells",did not induce significant cancer cell death
same,"cancer cell death and H5 emission, drug with IL-2","[2]; AZD5363 1 μM with 100 U mL^−1 IL-2, CD8+ T cell-E0771 co-cultures",caused significant cancer cell death
same,E0771 cells double-stained with probe H5 and AF647-Annexin V,"[2]; IL-2+AZ (AZD5363 1 μM), co-culture with CD8+ T cells, Data1",33%
same,E0771 cells double-stained with probe H5 and AF647-Annexin V,"[2]; IL-2+AZ (AZD5363 1 μM), co-culture with CD8+ T cells, Data2",42%
same,E0771 cells double-stained with probe H5 and AF647-Annexin V,"[2]; IL-2+AZ (AZD5363 1 μM), co-culture with CD8+ T cells, Data3",44%
same,fluorescence signals compared to IL-2 only controls,[1],Increased
same,H5 fluorescence staining in the screen,"[1]; drug 1 μM + IL-2 100 U mL^−1, 3 h",brightest H5 fluorescence staining
"CO[C@@]12[C@H](COC(N)=O)C3=C(C(=O)C(C)=C(N)C3=O)N1C[C@@H]1N[C@@H]12 [C18, Mitomycin C]",fluorescence signals compared to IL-2 only controls,[1],Increased
"IEPDSL [H3, FRET hexapeptide IEPDSL]",S/N ratios,[3]; [9],68
same,t50,[3]; [9],15 min
same,S/N ratios,[3]; [10],76
same,t50,[3]; [10],18 min
same,S/N ratios,[3]; [11],73
same,t50,[3]; [11],14 min
same,kcat,[4],23.6 s⁻¹
same,"HPLC conversion (20 nM hGzmB, 2 h)",[5],80%
Ac-IEPD-aldehyde [reference compound],effect on the fluorescence response of H5 to hGzmB,[3]; Ac-IEPD-CHO 50 μM preincubated 1 h with GzmB,markedly reduced
"IEPDSG [H2, FRET hexapeptide IEPDSG]",S/N ratios,[3]; [9],67
same,t50,[3]; [9],13 min
same,S/N ratios,[3]; [10],70
same,t50,[3]; [10],15 min
same,S/N ratios,[3]; [11],69
same,t50,[3]; [11],14 min
same,kcat,[4],11.2 s⁻¹
same,"HPLC conversion (20 nM hGzmB, 2 h)",[5],80%
"IEPDRL [H7, negative control FRET hexapeptide IEPDRL]",S/N ratios,[3]; [10],14
same,S/N ratios,[3]; [11],13
same,"HPLC conversion (20 nM hGzmB, 2 h)",[5],60%
"IEFDAL [H5m, hexapeptide analogue containing phenylalanine, IEFDAL]",Fluorescence fold increase,[6]; Data 1,5.6
same,Fluorescence fold increase,[6]; Data 2,7.1
same,Fluorescence fold increase,[6]; Data 3,5.2
same,Fluorescence fold increase,[6]; Data 4,8.2
same,Fluorescence fold increase,[6]; Data 5,10.5
same,Fluorescence fold increase,[6]; Data 6,7.7
same,Fluorescence fold increase,[6]; Data 7,9.6
same,Fluorescence fold increase,[6]; Data 8,8.2
same,Fluorescence fold increase,[6]; Data 9,12.2
same,"HPLC conversion (20 nM hGzmB, 2 h)",[5],70%
"IEPDWR [H6, negative control FRET hexapeptide IEPDWR]",S/N ratios,[3]; [10],39
same,S/N ratios,[3]; [11],40
same,"S/N ratios (fluorescence increase, signal-to-background)","[3]; probe 25 μM, hGzmB 20 nM, mean ± SEM, n = 3",12
same,"HPLC conversion (20 nM hGzmB, 2 h)",[5],40%
"C#CC[C@H](c1nc2cc(Cl)ccc2c(=O)n1Nc1ccccc1)N(CCCN)C(=O)c1cccc(Cl)c1F [C12, ARQ621]",fluorescence signals compared to IL-2 only controls,[1],Increased
"CC(=O)O[C@@]12CO[C@@H]1C[C@H](O)[C@@]1(C)C(=O)[C@H](O)C3=C(C)[C@@H](OC(=O)[C@H](O)[C@@H](NC(=O)OC(C)(C)C)c4ccccc4)C[C@@](O)([C@@H](OC(=O)c4ccccc4)[C@H]21)C3(C)C [C11, Docetaxel]",fluorescence signals compared to IL-2 only controls,[1],Increased
"C/C(=C\c1csc(C)n1)[C@@H]1C[C@@H]2O[C@]2(C)CCC[C@H](C)[C@H](O)[C@@H](C)C(=O)C(C)(C)[C@@H](O)CC(=O)O1 [C13, Epothilone B]",fluorescence signals compared to IL-2 only controls,[1],Increased
"IEPDAG [H1, FRET hexapeptide IEPDAG]",S/N ratios,[3]; [9],61
same,t50,[3]; [9],32 min
same,S/N ratios,[3]; [10],48
same,t50,[3]; [10],38 min
same,S/N ratios,[3]; [11],55
same,t50,[3]; [11],36 min
same,"HPLC conversion (20 nM hGzmB, 2 h)",[5],75%
"CN[C@@H]1C[C@H]2O[C@@](C)([C@@H]1OC)n1c3ccccc3c3c4c(c5c6ccccc6n2c5c31)C(=O)NC4 [staurosporine, reference compound]",Annexin V +ve E0771 cells,[7]; replicate 1,84%
same,viable E0771 cells,[7]; replicate 1,13%
same,Annexin V +ve E0771 cells,[7]; replicate 2,62%
same,viable E0771 cells,[7]; replicate 2,37%
same,Annexin V +ve E0771 cells,[7]; replicate 3,71%
same,viable E0771 cells,[7]; replicate 3,27%
"IEPDWL [H4, FRET hexapeptide IEPDWL]",S/N ratios,[3]; [9],78
same,t50,[3]; [9],51 min
same,S/N ratios,[3]; [10],73
same,t50,[3]; [10],55 min
same,S/N ratios,[3]; [11],75
same,t50,[3]; [11],56 min
same,kcat,[4],28.2 s⁻¹
same,"HPLC conversion (20 nM hGzmB, 2 h)",[5],82%
{BODIPY(FL)}-IEPDSG-{Dabcyl′} [hexapeptide H2],conversion (cleavage) after 2 h with 20 nM hGzmB,[8],80%
{BODIPY(FL)}-IEPDSL-{Dabcyl′} [peptide H3],conversion (cleavage) by hGzmB,[8],80%
{BODIPY(FL)}-IEPDWL-{Dabcyl′} [peptide H4],conversion (cleavage) by hGzmB,[8],82%
{BODIPY(FL)}-IEPDRL-{Dabcyl′} [hexapeptide H7],conversion (cleavage) by hGzmB,[8],60%
{BODIPY(FL)}-IEPDAG-{Dabcyl′} [hexapeptide H1],conversion (cleavage) after 2 h with 20 nM hGzmB,[8],75%
